Data as given in US5356794A, “Purified enzymatic preparation derived from chromobacterium violaceum, method for preparing it and its use in the production of α, β-dehydrotryptophanyl-peptides” (priority 1991, dated 1994).

Assays:
Format in all cases: biochemical, Chromobacterium violaceum
L-Trp 2',3'-oxidase [1] = test: Specificity of the reaction (conversion of amino acid derivatives and indole compounds); conditions: for effect of conversion of substrates with free α-amino group on the enzyme: after a few minutes, absorbance at 320 nm rises then decreases
Text: No conversion could be observed for the aromatic amino acids: N-acetyl-L-phenylalaninamide and N-acetyl-L-tyrosinamide. The same is the case when the indole ring is substituted: 5-hydroxyl L-Trp, N-formyl L-Trp and for the isomers of the D series: D-tryptophan and N-acetyl-D-tryptophan.
This phenomenon is much more rapid when the α-carboxyl functional group is not substituted (L-Trp, comp. I), and results in the formation of an unstable imine (II) which is hydrolysed to give rise to the α-keto compounds (indole-3-pyruvic acid (III) and its amide homologue respectively)--FIG. 6--. It is therefore preferable to block the α-amino functional group so as to avoid any isomerisation phenomenon and to ensure greater stability of the dehydro compound.

L-Trp 2',3'-oxidase [2] = test: Kinetics of dehydrogenation of substrates by purified L-Trp 2',3'-oxidase (appearance of dehydro product at 330 nm); conditions: substrate of L-Trp 2',3'-oxidase, in the presence of catalase
Protocol: Measurements of the specific activity of the enzyme as well as all the kinetic experiments in the steady state, were performed under the standard conditions defined below:
Substrate: 1 mMN-acetyl-L-tryptophanamide (NATA)
Buffer: 50 mM succinate, pH 5.5
by directly monitoring the appearance of the dehydro product at 330 nm (FIG. 3). The specific activity (As) of fraction Q1 is calculated on the basis of a molar extinction coefficient at 330 nm of 18.8 mM^-1.cm^-1 determined in the laboratory (against ε330 =19.89 mM^-1.cm^-1 in the literature; TAKAI et al. mentioned above). NATA, which represents the smallest peptide chain possible, is used as reference substrate for the enzymatic reaction. The specific activity of the preparation (As) is estimated at 39.5±3.1 units for NATA (an enzymatic unit represents a mole of product formed per second per mole of heme).
The dehydrogenation of NATA was monitored as a function of the pH (pH 3-5, 6-8) at a temperature of 30° C. in 50 mM succinate buffer, pH 5.6. The reaction products are analysed and purified by reversed-phase HPLC and then freeze-dried and analysed by mass spectrometry (desorption by chemical ionisation: DCI). ΔNATA is the only product of the enzymatic reaction which is characterised by HPLC (single peak, γmax 333 nm) and by mass spectrophotometry (MH^+ =244).
The procedure is as in Example 1.7).
All the reactions were performed in the presence of catalase. In each case, the kinetic constants (Kcat and Km) are calculated so as to evaluate the efficiency of the enzyme for each type of substrate.

L-Trp 2',3'-oxidase [3] = test: Conversion of Trp in proteins by L-Trp 2',3'-oxidase in 24 hours; conditions: standard conditions, E/S ≈ 1/1000, values given as a guide
Protocol: (*): Values given as a guide, giving an idea of the conversion of Trp in
the proteins in 24 hours, under the standard conditions defined in Exampl
As specified above, the accessibility of the tryptophanyl residues, both with respect to the indolyl ring and with respect to the Cα and Cβ protons, plays a major role.

For `N[C@@H](Cc1c[nH]c2ccc(O)cc12)C(=O)O` [5-hydroxyl L-Trp], the “conversion by the enzyme (specificity of the reaction)” value (shortened to “conversion by the enzyme”) (L-Trp 2',3'-oxidase [1]) was “No conversion”.

With `CC(=O)N[C@H](Cc1c[nH]c2ccccc12)C(=O)O` [N-acetyl-D-tryptophan] the “conversion by the enzyme” value (L-Trp 2',3'-oxidase [1]) was “No conversion”.

`N[C@H](Cc1c[nH]c2ccccc12)C(=O)O` [D-tryptophan] was tested, and the “conversion by the enzyme” value (L-Trp 2',3'-oxidase [1]) was “No conversion”.

`CSCC[C@H](NC(=O)[C@H](Cc1c[nH]c2ccccc12)NC(=O)CCNC(=O)OC(C)(C)C)C(=O)N[C@@H](CC(=O)O)C(=O)N[C@@H](Cc1ccccc1)C(N)=O` [Pentagastrin] was tested, and the Kcat/Km (L-Trp 2',3'-oxidase [2]) was 10^6 M^-1.s^-1, the Kcat (L-Trp 2',3'-oxidase [2]; 30° C., 50 mM succinate buffer) was 32 s⁻¹ and the Km (L-Trp 2',3'-oxidase [2]; 30° C., 50 mM succinate buffer) was 26 µM.

`NC(=O)[C@@H](N)Cc1c[nH]c2ccccc12` [L-tryptophanamide] was tested, and the “effect of conversion of substrates with free α-amino group on the enzyme” value (L-Trp 2',3'-oxidase [1]) was “complete inhibition of the enzyme”.

For `O=C(O)CCc1c[nH]c2ccccc12` [indole-3-propionic acid], the “conversion by the enzyme” value (L-Trp 2',3'-oxidase [1]) was “oxidised to indole-3-acrylic acid”.

“β-Lactoglobulin: protein substrate, 162 residues, Trp19-Trp51, 32 kDa” was tested, and the “conversion of Trp in the proteins” value (L-Trp 2',3'-oxidase [3]) was 2 % of conversion.

`NCCc1c[nH]c2ccccc12` [tryptamine] was tested, and the “conversion by the enzyme” value (L-Trp 2',3'-oxidase [1]) was “no reaction”.

`O=CN[C@@H](Cc1c[nH]c2ccccc12)C(=O)O` [N-formyl L-Trp] was tested, and the “conversion by the enzyme” value (L-Trp 2',3'-oxidase [1]) was “No conversion”.

`N[C@@H](Cc1c[nH]c2ccccc12)C(=O)O` [L-tryptophan] was tested, and the “effect of conversion of substrates with free α-amino group on the enzyme” value (L-Trp 2',3'-oxidase [1]) was “complete inhibition of the enzyme”.

B1: Catalase: protein substrate, 506 residues, six Trp, 232 kDa (EC 1.11.1.6) (protein, UniProt P00432 2-527, looked up)
Catalase: ADNRDPASDQMKHWKEQRAAQKPDVLTTGGGNPVGDKLNSLTVGPRGPLLVQDVVFTDEMAHFDRERIPERVVHAKGAGAFGYFEVTHDITRYSKAKVFEHIGKRTPIAVRFSTVAGESGSADTVRDPRGFAVKFYTEDGNWDLVGNNTPIFFIRDALLFPSFIHSQKRNPQTHLKDPDMVWDFWSLRPESLHQVSFLFSDRGIPDGHRHMNGYGSHTFKLVNANGEAVYCKFHYKTDQGIKNLSVEDAARLAHEDPDYGLRDLFNAIATGNYPSWTLYIQVMTFSEAEIFPFNPFDLTKVWPHGDYPLIPVGKLVLNRNPVNYFAEVEQLAFDPSNMPPGIEPSPDKMLQGRLFAYPDTHRHRLGPNYLQIPVNCPYRARVANYQRDGPMCMMDNQGGAPNYYPNSFSAPEHQPSALEHRTHFSGDVQRFNSANDDNVTQVRTFYLKVLNEEQRKRLCENIAGHLKDAQLFIQKKAVKNFSDVHPEYGSRIQALLDKYNEEKPKNAVHTYVQHGSHLSAREKANL
In the case of B1, the “conversion of Trp in the proteins” value (L-Trp 2',3'-oxidase [3]) is reported as 12 % of conversion.
